Measured values as given in patent publication US4927817A, “Preventive and therapeutic agent against liver disorder” (Zeria Pharmaceutical Co., Ltd., priority 1986, dated 1990).
“Also recorded” adds a separate entry of the source.

How the values were obtained:
[1] = test system: liver disorder caused by carbon tetrachloride; assay: prevention of experimental liver disorder in rat caused by carbon tetrachloride: serum GOT and GPT; format: in vivo, male Wistar rats; settings: for GOT (serum) / GPT (serum): CCl4 0.4 ml/kg oral 1 h after last dose, blood at 24 h; for GOT (serum): CCl4 + CMC control 2115.9 ± 260.2; for GPT (serum): CCl4 + CMC control 2243.8 ± 333.0
Method: (§1) Carnosine zinc salt was suspended in 0.5% sodium carboxymethyl cellulose (CMC) solution to prepare 60 mg/ml and 20 mg/ml suspensions. This was given to rats orally every day for 8 days at the rate of 0.5 ml/100 g so that the dosage was to be 300 mg/kg and 100 mg/kg, respectively. To the control group, the same volume of 0.5% CMC was given.
(§2) To prepare the model animals with liver disorder caused by carbon tetrachloride, carbon tetrachloride mixed in olive oil to have a 10% (V/V) mixture was given orally at the rate of 4 ml/kg (0.4 ml/kg as carbon tetrachloride) one hour after the final administration of carnosine zinc salt or 0.5% CMC. The animals were anesthetized by intraperitoneal injection of pentobarbital at 24 hours after carbon tetrachloride was given, and blood was collected from carotid arteries. The blood was centrifuged at 3000 rpm for 15 minutes to fractionate serum, and GOT and GPT were determined (Reitman Frankel and Momose modification).
For the experiment, male Wistar rats were used. With 10 rats in each group, they were divided into three groups: the group given with carbon tetrachloride (CCl4) and 0.5% CMC only (CCl4 +CMC), the group given with carbon tetrachloride and 300 mg/kg or 100 mg/kg of carnosine zinc salt (CCl4 +carnosine zinc salt) and the group given with 0.5% CMC only (CMC).

hepatic cells = assay: histopathological examination of isolated liver (H-E staining) in rats given carbon tetrachloride; format: in vivo, male Wistar rats
Method: as §1, §2
From the isolated liver, the paraffined sections were prepared, stained by H-E staining and were examined by histopathological examination.
For the experiment, male Wistar rats were used. […]

[2] = test system: hepatitis experimentally induced by carbon tetrachloride; assay: carnosine zinc salt given after liver disorder had actually occurred (carbon tetrachloride hepatitis); format: in vivo, model animals; settings: CCl4 hepatitis
[3] = acute toxicity test, oral; format: in vivo, female and male Wistar rats
From the text: In the acute toxicity test, female and male Wistar rats, each with body weight 150-200 g, were divided into the groups with 10 rats each, and 10 g/kg each of carnosine zinc salt was given orally.

[4] = 100 mg/kg oral daily for 8 days
[5] = 300 mg/kg oral daily for 8 days

For NCCC(=O)[N-][C@@H](Cc1c[nH]cn1)C(=O)[O-].[Zn+2] [carnosine zinc salt, L-carnosine zinc salt], the “GOT (serum)” value [1, 4] was 2167.7 ± 777.5 KU, the “GPT (serum)” value [1, 4] was 1917.7 ± 748.6 KU and the “GPT and GOT in blood, statistical significance” value ([1]; 300 mg/kg administration group, risk rate of 1%) was “significantly decreased at risk rate of 1%”. For the same compound, the “GOT (serum)” value [1, 5] was 629.7 ± 121.2 KU, the “GPT (serum)” value [1, 5] was 427.7 ± 69.4 KU and the “increase of hepatic enzymes in blood” value ([1]; given before liver disorder occurs, CCl4 hepatitis) was “effectively prevented”. For the same compound, the “increase of GPT and GOT in blood” value ([1]; oral, depending upon the dosage, CCl4 rats) was “significant decline in the increase of GPT and GOT in blood; also recorded: suppresses increase of GPT and GOT in blood, depending upon the dosage”, the “prevention of experimental liver disorder caused by carbon tetrachloride” value ([1]; oral, rat) was “effect of carnosine zinc salt to prevent the experimental liver disorder caused by carbon tetrachloride” and the “necrosis of hepatic cells and fat formation” value (hepatic cells; group given carnosine zinc salt, CCl4 rats) was “suppression of necrosis of hepatic cells and fat formation”. The “degree of necrosis of hepatic cells” value (hepatic cells; improvement of liver disorder) was “reduction of the degree of necrosis of hepatic cells”, the “preventive effect when given after liver disorder had occurred” value [2] was “the same preventive effect was obtained” and the “death in acute toxicity test” value ([3]; 10 g/kg oral, observation for 7 days, female and male rats) was “no case of death”. For the same compound, the acute toxicity ([3]; oral) was “very weak toxicity; also recorded: extremely weak”.
